Results on eight molecules are retold here after patent publication US11390621B2, “Chiral indole compounds and their use” (ARIAGEN, INC., priority 2019, dated 2022).

Holding throughout (type): in vitro ADME
Series [1] in a line: Hepatocyte intrinsic clearance assay (metabolic stability), human hepatocytes. The conditions noted are these: male, human, cryopreserved pooled hepatocytes, Human Hepatocytes, 1 μM test compound. The essentials: (§1)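 Cryopreserved pooled hepatocytes (1×10^6 cells/mL final) incubated with 1 μM compound at 37 °C, 5% CO2; samples at 0–120 min quenched in acetonitrile, analysed by LC-MS in duplicate. t1/2 and CLint from ln(% remaining) vs time slope; CLH via well-stirred liver model (fu=1) and EH derived from it.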

A further series relates to human hepatocytes. Described as above. The following applies: Human Hepatocytes; well stirred liver model, fu=1. In short, it runs like this:
as §1

Series [2] is described as follows: Hepatocyte intrinsic clearance assay (metabolic stability), rat hepatocytes. The following applies: rat, cryopreserved hepatocytes, Rat Hepatocytes, 1 μM test compound. The essentials: as §1
Another series deals with rat hepatocytes. The description is as above. The conditions noted are these: Rat Hepatocytes; well stirred liver model, fu=1. The essentials:
as §1

For `CC[C@H](N)c1csc(C(=O)c2c[nH]c3ccc(F)cc23)n1` [ARI-218], the half-life (commonly the time in which the quantity being followed falls by half) at 1 μM is 78 min in series [1] and 60 min in series [2]. In addition, the hepatocyte CLint (in general, the capacity of the preparation to metabolise the compound, expressed as a volume cleared per time) at 1 μM in series [1] was 9.16 µL/min/1e6 cells; in series [2] it was 11.1 µL/min/1e6 cells. The “EH (hepatic extraction ratio)” value was found to be 22.2% in the series on human hepatocytes and 42.5% in the series on rat hepatocytes.

As for `CC[C@@H](N)c1csc(C(=O)c2c[nH]c3ccc(F)cc23)n1` [ARI-219], the values for the half-life at 1 μM in series [1] and in series [2] were 318 min and 30 min, respectively. For the same molecule, the hepatocyte CLint at 1 μM worked out at 2.17 µL/min/1e6 cells in series [1] and 21.4 µL/min/1e6 cells in series [2]. In addition, the “EH (hepatic extraction ratio)” value with human hepatocytes is listed as 11.5%; in the series with rat hepatocytes, 58.9%.

Turning to `CC(C)(O)c1csc(C(=O)c2c[nH]c3cc(F)ccc23)n1` [ARI-220, (6-fluoro-1H-indol-3-yl)(4-(2-hydroxypropan-2-yl)thiazol-2-yl)methanone], the results for the half-life at 1 μM in series [1] and in series [2] were 84 min and 144 min, respectively. Also, the hepatocyte CLint at 1 μM was determined as 8.33 µL/min/1e6 cells in series [1] and 4.77 µL/min/1e6 cells in series [2]. The “EH (hepatic extraction ratio)” value in the series on human hepatocytes came out at 21.6%; in the series with rat hepatocytes it was 24.2%.

As to `O=C(c1nc(C2(O)CC2)cs1)c1c[nH]c2cc(F)ccc12` [ARI-221, (6-fluoro-1H-indol-3-yl)(4-(1-hydroxycyclopropyl)thiazol-2-yl)methanone], the half-life at 1 μM in series [1] is 30 min; in series [2], 126 min. The values for the hepatocyte CLint at 1 μM in series [1] and in series [2] were 25.3 µL/min/1e6 cells and 5.55 µL/min/1e6 cells, respectively. Besides, the “EH (hepatic extraction ratio)” value stood at 27.3% in the series on human hepatocytes and 27.1% in the series on rat hepatocytes.

As for `N[C@H](c1csc(C(=O)c2c[nH]c3cc(F)ccc23)n1)C(F)(F)F` [ARI-223], the half-life at 1 μM was 60 min in series [1] and 30 min in series [2]. In addition, the intrinsic metabolic clearance (hepatocyte CLint) at 1 μM in series [1] came to 11.6 µL/min/1e6 cells; in series [2] it was 25.6 µL/min/1e6 cells. The results for the “EH (hepatic extraction ratio)” value with human hepatocytes and with rat hepatocytes were 23.7% and 63.1%, respectively.

In the case of `NC1(c2csc(C(=O)c3c[nH]c4cc(F)ccc34)n2)CC1` [ARI-225, (4-(1-aminocyclopropyl)thiazol-2-yl)(6-fluoro-1H-indol-3-yl)methanone], the half-life at 1 μM was 138 min in series [1] and 30 min in series [2]. Also, the hepatocyte CLint at 1 μM in series [1] was 4.96 µL/min/1e6 cells; in series [2] it was 23.2 µL/min/1e6 cells. The figures for the “EH (hepatic extraction ratio)” value with human hepatocytes and in the series with rat hepatocytes were 17.8% and 60.8%, respectively.

As for `N[C@H](c1csc(C(=O)c2c[nH]c3ccccc23)n1)C(F)(F)F` [ARI-228], the half-life at 1 μM in series [1] is 12 min; in series [2] it was 6 min. The hepatocyte CLint at 1 μM came to 64.4 µL/min/1e6 cells in series [1] and 112 µL/min/1e6 cells in series [2]. Further, the “EH (hepatic extraction ratio)” value in the series on human hepatocytes is given as 27.6%; in the series on rat hepatocytes, 88.2%.

Turning to `N[C@@H](c1csc(C(=O)c2c[nH]c3ccccc23)n1)C(F)(F)F` [ARI-229], the half-life at 1 μM in series [1] is 138 min; in series [2], 60 min. Moreover, the hepatocyte CLint at 1 μM in series [1] turned out to be 5.03 µL/min/1e6 cells; in series [2], 11.7 µL/min/1e6 cells. The “EH (hepatic extraction ratio)” value is recorded as 11.4% in the series on human hepatocytes and 43.9% in the series with rat hepatocytes.
